Measurements taken from patent US20200131196A1 (Mount Tam Therapeutics, Inc., priority 2017, published 2020).
Values joined by “and” are separate entries in the source; they are usually repeats but may differ in a detail not shown here. Equal entries are not always repeated. Where two headings read alike, the source gives them in different places.

Tests used:
[1] = Whole blood concentrations in mice after IP dosing (LC-MS/MS); type: in vivo, mouse; settings: for approximate mean concentration in whole blood: up to six hours following administration
Procedure: Shown below are whole blood concentrations following administration of the compound of Formula II to mice. The compound of Formula II was administered to mice at 2 mg/kg or 10 mg/kg and the concentration of the compound in whole blood determined. These determinations were made using protein precipitation, liquid chromatography (LC), and mass spectrometry (MS/MS). Ten μl aliquots of whole blood and matrix calibration standards were distributed in a 96-well plate; 10 μl aliquots of blank matrix for matrix blanks and control blanks were included as controls. Ten μl of water was added to each sample followed by vortexing. One hundred sixty […] of internal standard was added to each sample except the matrix blanks; 160 μl 70:30 water:acetonitrile (ACN) was added to matrix blanks. This was followed by a […]. One hundred fifty μl of the resultant supernatant was then transferred to a new 96-well plate and the samples blown to dryness at 35° C. The resultant product was then reconstituted with 90 μl ACN.

[2] = at 30 days
Excerpt: Tumor growth was monitored daily. […] Significance was set at p≤0.05.

Structure (SMILES): CO[C@H]1C[C@@H]2CC[C@@H](C)[C@@](O)(O2)C(=O)C(=O)N2CCCC[C@H]2C(=O)O[C@H]([C@H](C)C[C@H]2C[C@H]3C[C@@H]2C[C@@H]3O)CC(=O)[C@H](C)/C=C(\C)[C@@H](O)[C@@H](OC)C(=O)[C@H](C)C[C@H](C)/C=C/C=C/C=C/1C [Formula II, C37-[(1R,2S,4R,5S)-5-hyhroxybicyclo[2.2.1]heptane] rapamycin]
- Formula II Concentrations in Mouse Whole Blood, individual animals ([1]; 2 mg/kg IP QD × 3 days, Day 3, 6.00 hrs, animals 7, 8, 9): 416 ng/mL and 745 ng/mL and 604 ng/mL
- Formula II Concentrations in Mouse Whole Blood, Mean ([1]; 2 mg/kg IP QD × 3 days, Day 3, 24.0 hrs): 41.9 ng/mL
- Formula II Concentrations in Mouse Whole Blood, individual animals ([1]; 2 mg/kg IP QD × 3 days, Day 3, 24.0 hrs, animals 7, 8, 9): 17.6 ng/mL and 59.6 ng/mL and 48.6 ng/mL
- concentrations in whole blood over time (in words) ([1]; 2 mg/kg or 10 mg/kg IP QD for three days): sufficient concentrations in whole blood
- Formula II Concentrations in Mouse Whole Blood, Mean ([1]; 10 mg/kg IP QD × 3 days, Day 1, 1.00 hrs): 657 ng/mL
- Formula II Concentrations in Mouse Whole Blood, individual animals ([1]; 10 mg/kg IP QD × 3 days, Day 1, 1.00 hrs, animals 10, 11, 12): 560 ng/mL and 641 ng/mL and 769 ng/mL
- Formula II Concentrations in Mouse Whole Blood, Mean ([1]; 10 mg/kg IP QD × 3 days, Day 1, 2.00 hrs): 722 ng/mL
- Formula II Concentrations in Mouse Whole Blood, individual animals ([1]; 10 mg/kg IP QD × 3 days, Day 1, 2.00 hrs, animals 10, 11, 12): 793 ng/mL and 869 ng/mL and 503 ng/mL
- Formula II Concentrations in Mouse Whole Blood, Mean ([1]; 10 mg/kg IP QD × 3 days, Day 1, 6.00 hrs): 1165 ng/mL
- Formula II Concentrations in Mouse Whole Blood, individual animals ([1]; 10 mg/kg IP QD × 3 days, Day 1, 6.00 hrs, animals 10, 11, 12): 1000 ng/mL and 1950 ng/mL and 544 ng/mL
- Formula II Concentrations in Mouse Whole Blood, Mean ([1]; 10 mg/kg IP QD × 3 days, Day 1, 24.0 hrs): 204 ng/mL
- Formula II Concentrations in Mouse Whole Blood, individual animals ([1]; 10 mg/kg IP QD × 3 days, Day 1, 24.0 hrs, animals 10, 11, 12): 222 ng/mL and 181 ng/mL and 210 ng/mL
- Formula II Concentrations in Mouse Whole Blood, Mean ([1]; 10 mg/kg IP QD × 3 days, Day 2, 1.00 hrs): 2309 ng/mL
- Formula II Concentrations in Mouse Whole Blood, individual animals ([1]; 10 mg/kg IP QD × 3 days, Day 2, 1.00 hrs, animals 10, 11, 12): 3410 ng/mL and 2970 ng/mL and 546 ng/mL
- Formula II Concentrations in Mouse Whole Blood, Mean ([1]; 10 mg/kg IP QD × 3 days, Day 2, 2.00 hrs): 3323 ng/mL
- Formula II Concentrations in Mouse Whole Blood, individual animals ([1]; 10 mg/kg IP QD × 3 days, Day 2, 2.00 hrs, animals 10, 11, 12): 3670 ng/mL and 3930 ng/mL and 2370 ng/mL
- Formula II Concentrations in Mouse Whole Blood, Mean ([1]; 10 mg/kg IP QD × 3 days, Day 2, 6.00 hrs): 2256 ng/mL
- Formula II Concentrations in Mouse Whole Blood, individual animals ([1]; 10 mg/kg IP QD × 3 days, Day 2, 6.00 hrs, animals 10, 11, 12): 2770 ng/mL and 3390 ng/mL and 609 ng/mL
- Formula II Concentrations in Mouse Whole Blood, Mean ([1]; 10 mg/kg IP QD × 3 days, Day 2, 24.0 hrs): 179 ng/mL
- Formula II Concentrations in Mouse Whole Blood, individual animals ([1]; 10 mg/kg IP QD × 3 days, Day 2, 24.0 hrs, animals 10, 11, 12): 123 ng/mL and 336 ng/mL and 78.0 ng/mL
- Formula II Concentrations in Mouse Whole Blood, Mean ([1]; 10 mg/kg IP QD × 3 days, Day 3, 1.00 hrs): 2204 ng/mL
- Formula II Concentrations in Mouse Whole Blood, individual animals ([1]; 10 mg/kg IP QD × 3 days, Day 3, 1.00 hrs, animals 10, 11, 12): AQL and 3420 ng/mL and 987 ng/mL
- Formula II Concentrations in Mouse Whole Blood, Mean ([1]; 10 mg/kg IP QD × 3 days, Day 3, 2.00 hrs): 3199 ng/mL
- Formula II Concentrations in Mouse Whole Blood, individual animals ([1]; 10 mg/kg IP QD × 3 days, Day 3, 2.00 hrs, animals 10, 11, 12): 5170 ng/mL and 3650 ng/mL and 777 ng/mL
- Formula II Concentrations in Mouse Whole Blood, Mean ([1]; 10 mg/kg IP QD × 3 days, Day 3, 6.00 hrs): 2317 ng/mL
- Formula II Concentrations in Mouse Whole Blood, individual animals ([1]; 10 mg/kg IP QD × 3 days, Day 3, 6.00 hrs, animals 10, 11, 12): 3330 ng/mL and 2890 ng/mL and 730 ng/mL
- Formula II Concentrations in Mouse Whole Blood, Mean ([1]; 10 mg/kg IP QD × 3 days, Day 3, 24.0 hrs): 223 ng/mL
- Formula II Concentrations in Mouse Whole Blood, individual animals ([1]; 10 mg/kg IP QD × 3 days, Day 3, 24.0 hrs, animals 10, 11, 12): 223 ng/mL and 323 ng/mL and 124 ng/mL
- approximate mean concentration in whole blood ([1]; about 2 mg/kg): 383 to 651 ng/mL
- approximate mean concentration in whole blood ([1]; about 10 mg/kg): 657 to 3323 ng/mL
- concentration at 24 h ([1]; mouse, whole blood, intraperitoneal, 2 mg/kg, 2 mg/kg IP QD × 3 days, Day 1, 24.0 hrs, animals 7, 8, 9, read-out: Formula II Concentrations in Mouse Whole Blood, individual animals): 12.2 ng/mL
- concentration at 24 h ([1]; mouse, whole blood, intraperitoneal, 2 mg/kg, 2 mg/kg IP QD × 3 days, Day 1, 24.0 hrs, read-out: Formula II Concentrations in Mouse Whole Blood, Mean): 15.1 ng/mL
- concentration at 1 h ([1]; mouse, whole blood, intraperitoneal, 2 mg/kg, 2 mg/kg IP QD × 3 days, Day 2, 1.00 hrs, read-out: Formula II Concentrations in Mouse Whole Blood, Mean): 404 ng/mL
- concentration at 2 h ([1]; mouse, whole blood, intraperitoneal, 2 mg/kg, 2 mg/kg IP QD × 3 days, Day 2, 2.00 hrs, read-out: Formula II Concentrations in Mouse Whole Blood, Mean): 435 ng/mL
- concentration at 6 h ([1]; mouse, whole blood, intraperitoneal, 2 mg/kg, 2 mg/kg IP QD × 3 days, Day 2, 6.00 hrs, animals 7, 8, 9, read-out: Formula II Concentrations in Mouse Whole Blood, individual animals): 553 ng/mL
- concentration at 6 h ([1]; mouse, whole blood, intraperitoneal, 2 mg/kg, 2 mg/kg IP QD × 3 days, Day 2, 6.00 hrs, read-out: Formula II Concentrations in Mouse Whole Blood, Mean): 579 ng/mL
- concentration at 24 h ([1]; mouse, whole blood, intraperitoneal, 2 mg/kg, 2 mg/kg IP QD × 3 days, Day 2, 24.0 hrs, read-out: Formula II Concentrations in Mouse Whole Blood, Mean): 43.7 ng/mL
- concentration at 1 h ([1]; mouse, whole blood, intraperitoneal, 2 mg/kg, 2 mg/kg IP QD × 3 days, Day 3, 1.00 hrs, animals 7, 8, 9, read-out: Formula II Concentrations in Mouse Whole Blood, individual animals): 628 ng/mL
- concentration at 24 h ([1]; mouse, whole blood, intraperitoneal, 2 mg/kg, about 2 mg/kg, at about 24 hours following administration, read-out: approximate mean concentration in whole blood): 15 to 43.7 ng/mL
- concentration at 24 h ([1]; mouse, whole blood, intraperitoneal, 10 mg/kg, about 10 mg/kg, at about 24 hours following administration, read-out: approximate mean concentration in whole blood): 21 to 138 ng/mL
- Percent Survival [2]: 100%
- Percent Survival ([2]; listed as Formula I): 100%
